Reference: ChEMBL document CHEMBL3045787, “Synthesis of novel 1,4-naphthoquinone derivatives: antibacterial and antifungal agents” (2013)
≈ marks a conversion by molar mass, not a printed value. Calls of active or inactive are those of the source. No cut-off for these calls is given here.

How the values were obtained:
Escherichia coli [1] = assay: Antibacterial activity against Escherichia coli B 906 assessed as growth inhibition at 0.5% after 24 hr by agar disk diffusion method; format: functional
Escherichia coli [2] = assay: Antibacterial activity against Escherichia coli B 906 assessed as growth inhibition at 0.1% after 24 hr by agar disk diffusion method; format: functional
Aspergillus niger [3] = assay: Antifungal activity against Aspergillus niger assessed as growth inhibition after 24 to 72 hr by serial dilution method; format: functional
Yamadazyma tenuis [4] = assay: Antifungal activity against Candida tenuis assessed as growth inhibition after 24 to 72 hr by serial dilution method; format: functional
Mycobacterium [5] = assay: Antibacterial activity against Mycobacterium luteum B-917 assessed as growth inhibition after 24 to 72 hr by serial dilution method; format: functional
Staphylococcus aureus [6] = assay: Antibacterial activity against Staphylococcus aureus 209-P assessed as growth inhibition after 24 to 72 hr by serial dilution method; format: functional
Escherichia coli [7] = assay: Antibacterial activity against Escherichia coli B 906 assessed as growth inhibition after 24 to 72 hr by serial dilution method; format: functional, organism-based
Aspergillus niger [8] = assay: Antifungal activity against Aspergillus niger assessed as growth inhibition at 0.1% after 48 to 72 hr by agar disk diffusion method; format: functional
Aspergillus niger [9] = assay: Antifungal activity against Aspergillus niger assessed as growth inhibition at 0.5% after 48 to 72 hr by agar disk diffusion method; format: functional
Yamadazyma tenuis [10] = assay: Antifungal activity against Candida tenuis assessed as growth inhibition at 0.1% after 48 to 72 hr by agar disk diffusion method; format: functional
Yamadazyma tenuis [11] = assay: Antifungal activity against Candida tenuis assessed as growth inhibition at 0.5% after 48 to 72 hr by agar disk diffusion method; format: functional
Mycobacterium [12] = assay: Antibacterial activity against Mycobacterium luteum B-917 assessed as growth inhibition at 0.1% after 24 hr by agar disk diffusion method; format: functional
Mycobacterium [13] = assay: Antibacterial activity against Mycobacterium luteum B-917 assessed as growth inhibition at 0.5% after 24 hr by agar disk diffusion method; format: functional
Staphylococcus aureus [14] = assay: Antibacterial activity against Staphylococcus aureus 209-P assessed as growth inhibition at 0.1% after 24 hr by agar disk diffusion method; format: functional
Staphylococcus aureus [15] = assay: Antibacterial activity against Staphylococcus aureus 209-P assessed as growth inhibition at 0.5% after 24 hr by agar disk diffusion method; format: functional

| Structure (SMILES) | diameter of the inhibition zone (DIZ) (Escherichia coli [1]) [mm] | diameter of the inhibition zone (DIZ) (Escherichia coli [2]) [mm] | MIC (Aspergillus niger [3]) [µg/mL] | MIC (Yamadazyma tenuis [4]) [µg/mL] | MIC (Mycobacterium [5]) | MIC (Staphylococcus aureus [6]) | MIC (Escherichia coli [7]) | diameter of the inhibition zone (DIZ) (Aspergillus niger [8]) [mm] | diameter of the inhibition zone (DIZ) (Aspergillus niger [9]) [mm] | diameter of the inhibition zone (DIZ) (Yamadazyma tenuis [10]) [mm] | diameter of the inhibition zone (DIZ) (Yamadazyma tenuis [11]) [mm] | diameter of the inhibition zone (DIZ) (Mycobacterium [12]) [mm] | diameter of the inhibition zone (DIZ) (Mycobacterium [13]) [mm] | diameter of the inhibition zone (DIZ) (Staphylococcus aureus [14]) [mm] | diameter of the inhibition zone (DIZ) (Staphylococcus aureus [15]) [mm] |
| --- | --- | --- | --- | --- | --- | --- | --- | --- | --- | --- | --- | --- | --- | --- | --- |
| O=C1C(SCc2ccc(Cl)cc2)=C(N2CCSCC2)C(=O)c2ccccc21 | 0 | 0 | 31.2 (≈ 75 µM) | 7.8 (≈ 18.8 µM) | 125 µg/mL (≈ 301 µM) | inactive | inactive | 0 | 0 | 0 | 0 | 7 | 13.4 | 0 | 0 |
| CCOC1=C(Sc2nccn2C)C(=O)c2ccccc2C1=O | 0 | 0 | 15.6 (≈ 49.6 µM) | 250 (≈ 795 µM) | inactive | inactive | inactive | 0 | 12 | 0 | 0 | 0 | 0 | 0 | 0 |
